# Tested on: newly diagnosed COPD subjects
# Assay: Test of bronchial reversibility with salbutamol (spirometry, FEV1) before and after 4 and 10 days of erdosteine therapy, double-blind against placebo
# Format: in vivo, humans
# Protocol: This effect has been found in a trial utilizing the test of bronchial reversibility with salbutamol before and after 4 and 10 days of therapy with erdosteine at the dose of 900 mg/day, that is the maximum dosage presently approved in humans. The standard protocol has been used: spirometry was performed before and 15-20 minutes after the administration of […] of salbutamol with a metered inhaler. For reducing the bias, the study was double-blind against placebo and the patients selected were newly diagnosed COPD subjects never treated with −2 agonists. 7 patients were treated with erdosteine and 7 with placebo in a random order. At baseline, all the patients had only a partial reversibility (mean 2.5%) of bronchial obstruction calculated with the FEV1 (the absolute values were 1.5 liters before salbutamol and 1.537 liters after salbutamol), thus fully meeting the COPD definition. When the test was repeated at Day 4 of therapy, the reversibility of bronchial obstruction in the placebo group was not different from the baseline values (mean increase of FEV1: 0.9%), while in the erdosteine group there was a significant and unexpected increase of post-salbutamol FEV1 values in all the patients (mean increase of FEV1: 7.1%).
# [1] = Patient #1, after 4 days of erdosteine therapy
# [2] = Patient #1, after 10 days of erdosteine therapy
# [3] = Patient #4, after 4 days of erdosteine therapy
# [4] = Patient #4, after 10 days of erdosteine therapy
# [5] = Patient #4, before therapy (baseline)
# [6] = baseline, all the patients, before therapy
smiles,measurement,setting,value
O=C(O)CSCC(=O)NC1CCSC1=O (centres unmarked) [erdosteine],FEV1 post salbutamol,[1],2.05
same,FEV1 pre salbutamol,[1],1.85
same,increase of FEV1 post vs pre salbutamol,[1],+10.8%
same,FEV1 post salbutamol,[2],2.13
same,FEV1 pre-salbutamol,[2],1.93
same,increase of FEV1 post vs pre salbutamol,[2],+9.4%
same,FEV1 post salbutamol,"Patient #1, before therapy (baseline)",1.81
same,FEV1 pre-salbutamol,"Patient #1, before therapy (baseline) (entry two)",1.81
same,FEV1 pre-salbutamol,"Patient #4 (person one), before therapy (baseline)",1.19
same,FEV1 post salbutamol,[3],1.96
same,FEV1 pre salbutamol,[3],1.74
same,increase of FEV1 post vs pre salbutamol,[3],+12.6%
same,FEV1 post salbutamol,[4],1.92
same,FEV1 pre-salbutamol,[4],1.69
same,increase of FEV1 post vs pre salbutamol,[4],+13%
same,FEV1 post salbutamol,[5],1.26
same,increase of FEV1 post vs pre salbutamol,[5],+5.9%
same,reversal of the bronchial obstruction,erdosteine administered with beta agonists vs beta agonist alone,much more evident than that obtained with the beta agonist alone
same,"mean increase of FEV1 (reversibility of bronchial obstruction, post-salbutamol)","erdosteine group (7 patients), Day 4 of therapy, erdosteine 900 mg/day, spirometry 15-20 minutes after salbutamol",7.1%
same,"mean increase of FEV1 (reversibility of bronchial obstruction, post-salbutamol)","erdosteine group, final control at Day 10, erdosteine 900 mg/day",10.3%
CC(C)(C)NCC(O)c1ccc(O)c(CO)c1 (centres unmarked) [salbutamol],partial reversibility of bronchial obstruction calculated with the FEV1 (mean),"baseline, all the patients, before erdosteine or placebo therapy, salbutamol alone",2.5%
same,FEV1 absolute value after salbutamol,[6],1.537 L
same,FEV1 absolute value before salbutamol,[6],1.5 L

# From patent US20080033010A1, “Combination therapy of erdosteine and beta-2 agonists for treating respiratory pathologies characterized by non reversible or partially reversible airway obstruction” (EDMOND PHARMA s.r.l., priority 2006, published 2008)
